This passage reports CC50 results from ChEMBL document CHEMBL5303711, “ECBD screening data for assay EOS300108” (2023).

The source made the active and inactive calls. No rule for the calls is given here.

The data set can be described thus: Cytotoxicity activity against human HepG2 cells assessed by CellTiter-Glo luminescent cell viability assay. The data set is classed as toxicity, cell-based. Set-up: assay stage confirmatory assay, source tissue liver. The settings on record: HepG2 cells, read-out: IC50 relative.

`COc1cc(/C=C/C(=O)CC(=O)/C=C/c2ccc(O)cc2)ccc1O`: the CC50 was 11.5 µM (active). Next, `CN(C)CCNC(=O)NC[C@H]1CC[C@@H]2[C@H](O1)c1cc(C(F)(F)F)ccc1N[C@H]2c1ccccc1`: 3.5 µM (active).

As to `CCCCCCCCC(=O)N[C@H](CN1CCCC1)[C@H](O)c1ccc2c(c1)OCCO2`, the CC50 was 5.1 µM (active). The value for `Cn1nc(-c2ccc(C(F)(F)F)cc2)nc2c(=O)n(C)c(=O)nc1-2` was 1.1 µM (active). The value for `COc1ccc2[nH]c(C(=O)c3ccccc3)cc2c1` was 0.2 µM (inactive).

For `COc1ccc([N+](=O)[O-])c(S(=O)(=O)c2ccc(Cl)cc2)n1`, the CC50 was 2.2 µM (active).

As to `C[n+]1ccc(/C=C/c2c[nH]c3ccccc23)cc1`, the CC50 is 1.2 µM (active). Consider `O=C1Nc2ccccc2/C1=C1\Nc2ccccc2\C1=N/O`, for which the CC50 was 14.6 µM (inactive).

Take `CCN(Cc1cc(Nc2nc(C)cn3c(-c4cn[nH]c4)cnc23)sn1)C(C)(C)CO`: the CC50 is 1.8 µM (active).

Regarding `COc1cc(N2CCN(C)CC2)ccc1Nc1ncc2c(n1)N(C)c1ccccc1C(=O)N2`, the CC50 was 7.5 µM (active). Next, `CN1CCC(c2cc(-c3ccncc3)c(-c3ccc(F)cc3)[nH]2)CC1`: 9.2 µM (active); `COc1cc2c(Nc3ccc(NC(=O)c4ccccc4)cc3)ncnc2cc1OCCCN1CCOCC1`: 3.2 µM (active); `CC(C)NC(=O)[C@H]1CC[C@@H](n2/c(=N/C(=O)c3ccc(F)cc3)[nH]c3ccc(CN4CCC(C(C)(C)O)CC4)cc32)CC1`: 0.8 µM (active). Turning to `CC(=O)N1c2ccc(-c3ccc(C(=O)O)cc3)cc2[C@H](Nc2ccc(Cl)cc2)C[C@@H]1C`, the CC50 was 0.9 µM (active). Next, `CCNC(=O)Nc1ccc(-c2nc3c(c(N4CCOC[C@@H]4C)n2)CCN(c2ncccn2)C3)cc1`: 0.2 µM (active); `NC(=O)c1cnc(NCCc2ccc(O)c(Cl)c2)nc1NCc1ccccc1`: 4.2 µM (active); `c1cc(-c2cnn3cc(-c4ccc(N5CCNCC5)cc4)cnc23)c2cccnc2c1`: 0.9 µM (active). Next, `COc1cc(C(=O)NC2CCN(C)CC2)ccc1Nc1ncc2c(n1)N(C1CCCC1)CC(F)(F)C(=O)N2C`: 2.9 µM (active); `O=C(NCc1ccc(S(=O)(=O)c2cc(F)cc(F)c2)cc1)c1ccc2nccn2c1`: < 0.1 µM (active); `CC(C)c1ccc(-c2cc(=O)c3ccccc3o2)cc1`: 11.1 µM (active). Next, `Cc1cccc(CC(=O)N2CCc3c2ccc(-c2cn(C)c4ncnc(N)c24)c3F)n1`: 6.7 µM (active). Regarding `c1cc(NC2CCNCC2)nc(-c2cnc3ccccn23)c1`, the CC50 was 4.5 µM (active). Next, `NC1(Cc2ccc(Cl)cc2)CCN(c2ncnc3[nH]ccc23)CC1`: 6.7 µM (active); `Nc1ccccc1NC(=O)CCCCCC(=O)Nc1ccccc1`: 11.7 µM (active). The value for `CCCCNc1ncc(C(=O)NCc2ccc(-n3ccnc3)cc2)c(N[C@H]2CC[C@H](O)CC2)n1` was 2.8 µM (active); that for `CN(CC(=O)N(Cc1ccc(C2CCCCC2)cc1)c1ccc(C(=O)O)cc1)S(=O)(=O)c1c(F)c(F)c(F)c(F)c1F` was 3.4 µM (active); that for `COc1cc(C(N)=O)ccc1NC(=O)[C@@H]1N[C@@H](CC(C)(C)C)[C@@]2(C(=O)Nc3cc(Cl)ccc32)[C@H]1c1cccc(Cl)c1F` was 5.3 µM (inactive). The value for `O=C(CCN1CCN(C(=O)OCc2cc(Cl)cc(Cl)c2)CC1)c1ccc2[nH]c(=O)oc2c1` was 20.6 µM (inactive). As to `COc1ccccc1-c1cc(Nc2cccc(CS(N)(=O)=O)c2)ncn1`, the CC50 is 2.5 µM (active). The value for `CCCCNc1ncc2c(-c3ccc(CN4CCN(C)CC4)cc3)cn([C@H]3CC[C@H](O)CC3)c2n1` was 1.3 µM (active); that for `O=C(Nc1cccc(C(F)(F)F)c1)Nc1cc(S(=O)(=O)NC2CC2)ccc1-c1ccsc1` was 10.1 µM (active). The value for `N#Cc1ccnc(Nc2cc(C3CCN(C4COC4)CC3)cc(N3CCC(F)(F)C3)n2)c1` was 1.9 µM (active); that for `CN(C)C/C=C/C(=O)Nc1cccc(C(=O)Nc2ccc(Nc3nccc(-c4cccnc4)n3)cc2)c1` was 1 µM (active). The value for `O=C1c2ccccc2C(=O)c2oc(-c3ccccc3)nc21` was 2.6 µM (active). As for `COc1cc2c(cc1OC)CN(CCc1ccc(NC(=O)c3cc(OC)c(OC)cc3NC(=O)c3cnc4ccccc4c3)cc1)CC2`, the CC50 was 27.3 µM (inactive). Next, `CCS(=O)(=O)c1ccc(CC(=O)Nc2cc(Cl)c(-c3ccccc3OC(F)(F)F)c(Cl)c2)cc1`: 12.7 µM (inactive); `CCNC(=O)c1[nH]nc(-c2cc(Cl)c(O)cc2O)c1-c1ccc(OC)cc1`: 1 µM (active); `COc1cccc2c(NCc3ccccc3)nc(-n3c(N)nc4ccccc43)nc12`: 9.6 µM (active). The value for `N#Cc1cc2cc(CN3CCC(Nc4ncnc5sc(CC(F)(F)F)cc45)CC3)ccc2[nH]1` was 2.2 µM (active). Next, `Nc1ncc(-c2ccnc(Nc3ccncc3)n2)c(CC2CC2)n1`: 7 µM (active); `Cc1c(-c2ccc(N3CCc4cccc(C(=O)Nc5nc6ccccc6s5)c4C3)nc2C(=O)O)cnn1CC12CC3CC(CC(C3)C1)C2`: 1 µM (active); `CC(C)c1c2cc(-c3ccnc(N[C@H]4CC[C@H](NC5CCOCC5)CC4)n3)ccc2nn1C`: 0.1 µM (active).

Take `CN(C)CCCOc1ccc(-c2ccc3ncc4c(c3c2)n(C2CCOCC2)c(=O)n4C)cn1`: the CC50 is 7.4 µM (active).

Regarding `CCOc1cc(N2CCC(O)CC2)ccc1Nc1ncc2c(n1)N(C1CCCC1)CCC(=O)N2C`, the CC50 was 4.3 µM (active).

`C=CC(=O)Nc1ccc(CN2C(=O)N(c3cc(OC)cc(OC)c3)Cc3cnc(Nc4ccc(N5CCN(C)CC5)cc4)nc32)cc1`: the CC50 was 3.7 µM (active). Next, `Nc1nc(N)c2c(OCC3CCN(Cc4c(Cl)cccc4Cl)CC3)cccc2n1`: 4 µM (active); `CN1CCN(Cc2ccc(NC(=O)c3n[nH]cc3Nc3ncnc4[nH]ccc34)cc2)CC1`: 1.1 µM (active); `COc1nc(OCc2cccc(-c3ccccc3)c2C)ccc1CNCCNC(C)=O`: 4 µM (active). Next, `Cc1cc(N2C[C@@H](C)N[C@@H](C)C2)ncc1-c1ccc(-c2nc3c(ccn3C)c(=O)[nH]2)cc1`: 1.8 µM (active); `CN(C)C/C=C/C(=O)Nc1ccc(C(=O)N2CCC[C@@H](Nc3ncc(Cl)c(-c4c[nH]c5ccccc45)n3)C2)cc1`: 0.1 µM (active); `CC(C)(C)c1cc(NC(=O)Nc2ccc(Oc3ccnc4[nH]c(=O)cnc34)cc2F)n(-c2ccccc2)n1`: 0.4 µM (active).

Regarding `N#Cc1ccc(O[C@@H]2c3ccccc3C[C@H]2N2CCC[C@@H](N)C2)c(Cl)c1`, the CC50 is 4.9 µM (active). The value for `Cc1sc2c(c1C)C(c1ccc(Cl)cc1)=N[C@@H](CC(=O)NCCCCCCCCNC(=O)COc1cccc3c1C(=O)N(C1CCC(=O)NC1=O)C3=O)c1nnc(C)n1-2` (some centres undefined) was < 0.1 µM (active); that for `N[C@H]1CC[C@H](Nc2cc(-c3cccc(NCc4cccc(F)c4)n3)c(Cl)cn2)CC1` was 0.1 µM (active); that for `COc1ccc(-c2c[nH]c3nccc(-c4ccsc4)c23)c(OC)c1` was 7.9 µM (active). The value for `COc1cc(N2CCN(C)CC2)ccc1Nc1ncc2c(n1)N(C1CCC1)C(=O)N(c1c(C)cccc1C)C2` was 3.3 µM (active). In the case of `CNc1nc(Nc2ccc(C(=O)N3CCOCC3)cc2OC)nc2[nH]cc(Cl)c12`, the CC50 was 5 µM (active). The value for `COC(=O)[C@H](CC(C)C)NC(=O)c1ccc(NC[C@@H](N)CS)cc1-c1cccc2ccccc12` was 50 µM (inactive); that for `CN(c1ccccc1CNc1nc(Nc2ccc3c(c2)CC(=O)N3)ncc1C(F)(F)F)S(C)(=O)=O` was 1 µM (active); that for `N#Cc1cnc2c(Cl)cc(NCc3cn(CCN4CCCCCC4)nn3)cc2c1Nc1ccc(F)c(Cl)c1` was 11.6 µM (active). Consider `O=[N+]([O-])c1ccc(Sc2cccc[n+]2[O-])c2nonc12`, for which the CC50 is 0.6 µM (active).

`COc1ccc2c(c1)CN(C)CC2c1ccc(Cl)c(Cl)c1` (centres undefined): the CC50 is 12.6 µM (active). Next, `CN1CCN([C@H]2CC[C@H](n3cc(-c4ccc(Oc5ccccc5)cc4)c4c(N)ncnc43)CC2)CC1`: 1.6 µM (active); `CC(C)=CCC[C@]1(C)C=Cc2c(O)c3c(c(CC=C(C)C)c2O1)O[C@]12C(=C[C@@H]4C[C@H]1C(C)(C)O[C@@]2(C/C=C(/C)C(=O)O)C4=O)C3=O`: 0.7 µM (active).

Consider `CC(=O)c1cnc2ccc(-c3cc(Cl)c(O)c(Cl)c3)nc2c1N[C@H]1CC[C@H](CN(C)C)CC1`, for which the CC50 is 0.1 µM (active). Regarding `N#Cc1c(C2CCNCC2)cc(-c2c(O)cccc2OCC2CC2)nc1N`, the CC50 is 5.6 µM (active). The value for `C=CCNc1c(O)cc2c(O)c1C[C@@H](C)C[C@H](OC)[C@H](O)[C@@H](C)/C=C(/C)[C@H](OC(N)=O)[C@@H](OC)/C=C\C=C(\C)C(=O)N2` was 0.1 µM (active); that for `COc1cc2nc(-c3cc(F)ccc3O)nc(N[C@@H]3CNC[C@H]3C(C)(C)O)c2cc1OC` was 1.6 µM (active). Next, `C[C@]12CC/C(=N\OCCN)C[C@@H]1C(=O)C[C@@H]1[C@@H]2CC[C@]2(C)C(=O)CC[C@@H]12`: 10.5 µM (active); `CCCOc1cc(OCCCCN(C)C)cc(Oc2cc3c(cc2NS(=O)(=O)c2ccc(OC)c(OC)c2)n(C)c(=O)n3C)c1`: 7.8 µM (active); `Cc1cc(-c2cc(O)ccc2Cl)cc2nnc(Nc3ccc(OCCN4CCCC4)cc3)nc12`: 1.4 µM (active). The value for `CO[C@H]1/C=C\C=C(\C)C(=O)NC2=CC(=O)C(NCCN(C)C)=C(C[C@@H](C)C[C@H](OC)[C@H](O)[C@@H](C)/C=C(/C)[C@@H]1OC(N)=O)C2=O` was < 0.1 µM (active).

Turning to `Cc1nc2c(=O)n(C)c(=O)nc-2n(C)n1`, the CC50 is 0.7 µM (active). `CN(C)Cc1ccc(-c2nc3cccc4c3n2CCNC4=O)cc1`: the CC50 is 10.9 µM (active).
